{"source": "paper PMC10959927", "about": "“Platinum iodido drugs show potential anti-tumor activity, affecting cancer cell metabolism and inducing ROS and senescence in gastrointestinal cancer cells” (Communications Biology, 2024)", "assay_type_in_all_cases": "cell-based, human", "key": {"AGS cells [1]": {"tested_on": "AGS cells", "experiment": "Western blotting (p-p53, p-JNK, p-p38, p-ERK, p-CHK1/2, Mcl1, BID, BAX)", "conditions": "for fold change p-p53 vs Tubulin / fold change p-ERK vs Tubulin / fold change p-JNK vs Tubulin / fold change p-p38 vs Tubulin: Fig. 4A, replicate values; for fold change BID full length vs Tubulin / fold change MCL1 vs Tubulin: Fig. S3B", "protocol": "(§1) Total protein extracts were obtained by adding the lysis buffer: 25 mM HEPES pH 7.5, 0.3 M NaCl, 1.5 mM MgCl2, 0.2 mM EDTA, 0.5 mM DTT, 20 mM β-glicerophosphate, 0.1 mM Na3VO4, 0.1% triton X-100; in the presence of protease inhibitors. Twenty μg of protein per sample were loaded and resolved using 8%, 10% or 15% SDS-PAGE polyacrylamide gels, and then transferred onto PVDF membranes, followed by immunodetection using appropriate antibodies, purchased from Santa Cruz Technology: Mcl-1 (sc-819), Cell Signaling Technology: BIM, BID, BAX (#9942), p-p38 (1:2000, #4631), p-p53^ser15 (#9284), p-ERK1/2 (1:2000, #9106), p-CHK1^ser345 and p-CHK2^ser19 (#9931), Promega Corporation-Spain: p-JNK (#V7932), or Sigma-Aldrich: α-tubulin (1:10000, #TP026). Unless indicated, all antibodies were diluted 1:1000. Secondary antibodies conjugated with horseradish peroxidase were purchased from BioRad, and chemiluminescence detection was performed using ECL (Santa Cruz Biotechnology)."}, "PANC1 cells [2]": {"tested_on": "PANC1 cells", "experiment": "Western blotting (p-p53, p-JNK, p-p38, p-ERK, p-CHK1/2, Mcl1, BID, BAX)", "conditions": "for fold change p-ERK vs Tubulin / fold change p-JNK vs Tubulin / fold change p-p38 vs Tubulin / fold change p-p53 vs Tubulin: PANC1, Fig. 4A, replicate values", "protocol": "as §1"}, "MKN45 cells": {"tested_on": "MKN45 cells", "experiment": "SA-β-Gal activity, CellEvent Senescence Green flow cytometry", "conditions": "Fig. 3A, replicate values", "protocol": "(§2) SA-β-Gal activity was measured following two different approaches. (i) AGS, MKN45 and PANC1 cells (5 × 10^4) were seeded in 24-multiwell dishes and incubated overnight. […] For flow cytometry cell senescence detection, cells were tripsinized, fixed for 15 min with PFA 4% and stained with the CellEvent Senescense Green Flow Cytometry Assay Kit (C10840, Invitrogen) according to manufacturer’s instructions. CellEvent Senescense Green Probe was used at a 1:500 dilution and fluorescence was detected using the filter (Ex488nm/Em530/30) BL1 with a 4-laser Attune NxT Acoustic Cytometer (Thermo Fisher Scientific). […] After 3 h, the treatments were removed, new supplemented medium was added, and cells were incubated for an additional 24 h. Finally, SA-β-Gal staining was performed using the Senescence Cells Histochemical Staining Kit (CS0030-1KT) according to the manufacturer’s instructions."}, "AGS cells [3]": {"tested_on": "AGS cells", "experiment": "SA-β-Gal activity, CellEvent Senescence Green flow cytometry", "conditions": "Fig. 3A, replicate values", "protocol": "as §2"}, "PANC1 cells [4]": {"tested_on": "PANC1 cells", "experiment": "SA-β-Gal activity, CellEvent Senescence Green flow cytometry", "conditions": "Fig. 3A, replicate values", "protocol": "as §2"}}, "note": "Where “and” joins values, the source holds several entries; their conditions need not be identical. Identical values can stand only once.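 Throughout, for Fold change % Senescence: IC50 concentration of each compound relative to untreated control set as 1.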", "data": [{"smiles": "CC(C)[NH][Pt@SP3]([I])([I])[NH]C(C)C", "note": "[I5, trans-[PtI2(isopropylamine)2]]", "values": [{"measurement": "fold change p-p53 vs Tubulin", "setting": "AGS cells [1]; Time 3 h", "result": "0.5433 fold change and 0.6274 fold change and 1.359 fold change"}, {"measurement": "fold change p-ERK vs Tubulin", "setting": "AGS cells [1]; Time 6 h", "result": "3.858 fold change and 7.71 fold change and 6.1 fold change"}, {"measurement": "fold change p-JNK vs Tubulin", "setting": "AGS cells [1]; Time 6 h", "result": "2.706 fold change and 2.4308 fold change and 2.197 fold change"}, {"measurement": "fold change p-p38 vs Tubulin", "setting": "AGS cells [1]; Time 6 h", "result": "1.573 fold change and 3.845 fold change and 3.365 fold change"}, {"measurement": "fold change p-p53 vs Tubulin", "setting": "AGS cells [1]; Time 6 h", "result": "0.4994 fold change and 0.627 fold change and 1.555 fold change"}, {"measurement": "fold change p-ERK vs Tubulin", "setting": "AGS cells [1]; Time 24 h", "result": "3.8691 fold change and 7.1 fold change and 5.002 fold change"}, {"measurement": "fold change p-JNK vs Tubulin", "setting": "AGS cells [1]; Time 24 h", "result": "3.2721 fold change and 2.291 fold change and 2.816 fold change"}, {"measurement": "fold change p-p38 vs Tubulin", "setting": "AGS cells [1]; Time 24 h", "result": "3.758 fold change and 3.606 fold change and 2.16 fold change"}, {"measurement": "fold change p-p53 vs Tubulin", "setting": "AGS cells [1]; Time 24 h", "result": "0.7787 fold change and 0.8882 fold change and 1.672 fold change"}, {"measurement": "fold change BID full length vs Tubulin", "setting": "AGS cells [1]; time 1 h", "result": "0.978 fold change and 1.383 fold change and 0.822 fold change"}, {"measurement": "fold change BID full length vs Tubulin", "setting": "AGS cells [1]; time 3 h", "result": "0.826 fold change and 0.919 fold change and 0.851 fold change"}, {"measurement": "fold change MCL1 vs Tubulin", "setting": "AGS cells [1]; time 3 h", "result": "0.354 fold change and 0.557 fold change and 0.657 fold change"}, {"measurement": "fold change BID full length vs Tubulin", "setting": "AGS cells [1]; time 6 h", "result": "0.842 fold change and 0.933 fold change and 0.854 fold change"}, {"measurement": "fold change MCL1 vs Tubulin", "setting": "AGS cells [1]; time 24 h", "result": "1.039 fold change and 1.002 fold change and 0.903 fold change"}, {"measurement": "activation of p53 (p-p53 western blot)", "setting": "PANC1 cells [2]; PANC1, IC50, 1, 3, 6 and 24 h", "result": "did not activate p53"}, {"measurement": "phosphorylation of CHK1/2 (DDR pathway, western blot)", "setting": "PANC1 cells [2]; PANC1, IC50, 1, 3, 6 or 24 h", "result": "did not activate"}, {"measurement": "fold change BAX vs Tubulin", "setting": "PANC1 cells [2]; PANC1, time 1 h, Fig. S3B", "result": "1.558 fold change and 0.8186 fold change and 1.264 fold change"}, {"measurement": "fold change BAX vs Tubulin", "setting": "PANC1 cells [2]; PANC1, time 3 h, Fig. S3B", "result": "1.103 fold change and 1.1737 fold change and 1.2 fold change"}, {"measurement": "fold change BAX vs Tubulin", "setting": "PANC1 cells [2]; PANC1, time 6 h, Fig. S3B", "result": "1.097 fold change and 1.226 fold change and 1.154 fold change"}, {"measurement": "fold change BAX vs Tubulin", "setting": "PANC1 cells [2]; PANC1, time 24 h, Fig. S3B", "result": "1.153 fold change and 1.646 fold change and 1.378 fold change"}, {"measurement": "fold change BID full length vs Tubulin", "setting": "PANC1 cells [2]; PANC1, time 24 h, Fig. S3B", "result": "0.5478 fold change and 0.965 fold change and 0.596 fold change"}, {"measurement": "fold change MCL1 vs Tubulin", "setting": "PANC1 cells [2]; PANC1, time 24 h, Fig. S3B", "result": "1.638 fold change and 3.054 fold change and 2.481 fold change"}, {"measurement": "fold change p-ERK vs Tubulin", "setting": "PANC1 cells [2]; Time 1 h", "result": "5.052 fold change and 7.4391 fold change and 5.41 fold change"}, {"measurement": "fold change p-JNK vs Tubulin", "setting": "PANC1 cells [2]; Time 1 h", "result": "2.895 fold change and 2.7686 fold change and 4.719 fold change"}, {"measurement": "fold change p-p38 vs Tubulin", "setting": "PANC1 cells [2]; Time 1 h", "result": "2.229 fold change and 1.109 fold change and 1.075 fold change"}, {"measurement": "fold change p-p53 vs Tubulin", "setting": "PANC1 cells [2]; Time 1 h", "result": "0.74 fold change and 1.11 fold change and 0.95 fold change"}, {"measurement": "fold change p-ERK vs Tubulin", "setting": "PANC1 cells [2]; Time 3 h", "result": "4.573 fold change and 11.3646 fold change and 8.3 fold change"}, {"measurement": "fold change p-JNK vs Tubulin", "setting": "PANC1 cells [2]; Time 3 h", "result": "1.5726 fold change and 2.305 fold change and 1.813 fold change"}, {"measurement": "fold change p-p38 vs Tubulin", "setting": "PANC1 cells [2]; Time 3 h", "result": "2.01 fold change and 1.474 fold change and 1.299 fold change"}, {"measurement": "fold change p-p53 vs Tubulin", "setting": "PANC1 cells [2]; Time 3 h", "result": "0.37 fold change and 1.05 fold change and 0.6 fold change"}, {"measurement": "fold change p-ERK vs Tubulin", "setting": "PANC1 cells [2]; Time 6 h", "result": "3.1087 fold change and 13.4172 fold change and 7.72 fold change"}, {"measurement": "fold change p-JNK vs Tubulin", "setting": "PANC1 cells [2]; Time 6 h", "result": "2.264 fold change and 2.75 fold change and 2.02 fold change"}, {"measurement": "fold change p-p38 vs Tubulin", "setting": "PANC1 cells [2]; Time 6 h", "result": "1.737 fold change and 1.3292 fold change and 1.51 fold change"}, {"measurement": "fold change p-p53 vs Tubulin", "setting": "PANC1 cells [2]; Time 6 h", "result": "0.46 fold change and 1.28 fold change and 0.68 fold change"}, {"measurement": "fold change p-ERK vs Tubulin", "setting": "PANC1 cells [2]; Time 24 h", "result": "0.9081 fold change and 11.3435 fold change and 3.15 fold change"}, {"measurement": "fold change p-JNK vs Tubulin", "setting": "PANC1 cells [2]; Time 24 h", "result": "0.7671 fold change and 1.164 fold change and 1.094 fold change"}, {"measurement": "fold change p-p38 vs Tubulin", "setting": "PANC1 cells [2]; Time 24 h", "result": "1.276 fold change and 1.422 fold change and 1.33 fold change"}, {"measurement": "fold change p-p53 vs Tubulin", "setting": "PANC1 cells [2]; Time 24 h", "result": "0.81 fold change and 1.22 fold change and 0.52 fold change"}, {"measurement": "Fold change % Senescence", "setting": "MKN45 cells", "result": "6.84 fold change and 6.77 fold change and 7.76 fold change"}, {"measurement": "Fold change % Senescence", "setting": "AGS cells [3]", "result": "2.4 fold change and 2.38 fold change and 2.1 fold change"}, {"measurement": "Fold change % Senescence", "setting": "PANC1 cells [4]", "result": "2.58 fold change and 1.93 fold change and 2.21 fold change"}]}]}
